Measurements as given in patent publication US20060264419A1 (priority 2003, published 2006).

What follows are compounds tested against 5-HT2A receptors (Rattus norvegicus, UniProt P14842) (assay: in-vitro affinity to 5-HT2A receptors, displacement of [3H]ketanserine (Example A1)). Details: read-out: HT2A IC50.
Assay type: binding
Excerpt: The 5-HT2A receptors are exposed both to [^3H]ketanserine (a substance which is known for its affinity to the receptor) and also to the test compound. The decrease in the affinity of [^3H]ketanserine to the receptor is an indication of the affinity of the test substance to the 5-HT2A receptor.

5-HT2A receptors, sequence (P14842 whole entry): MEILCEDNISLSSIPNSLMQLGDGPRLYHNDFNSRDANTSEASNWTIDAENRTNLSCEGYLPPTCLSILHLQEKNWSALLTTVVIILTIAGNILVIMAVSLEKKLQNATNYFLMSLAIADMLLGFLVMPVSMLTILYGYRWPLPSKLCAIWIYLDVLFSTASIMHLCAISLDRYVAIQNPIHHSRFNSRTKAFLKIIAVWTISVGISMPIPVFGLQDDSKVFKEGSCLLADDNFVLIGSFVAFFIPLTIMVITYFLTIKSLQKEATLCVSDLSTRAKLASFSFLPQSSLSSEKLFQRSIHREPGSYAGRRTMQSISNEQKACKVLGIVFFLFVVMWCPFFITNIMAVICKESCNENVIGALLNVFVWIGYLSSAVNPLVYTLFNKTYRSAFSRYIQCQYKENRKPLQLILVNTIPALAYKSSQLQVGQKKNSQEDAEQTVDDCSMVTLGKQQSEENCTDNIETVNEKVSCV

Question: Which IC50 does the source give for `CN(C)C1CCN(Cc2cnn(-c3ccc(-c4ccccc4)cc3)c2-c2ccccc2F)CC1` [Example 1008, {1-[1-Biphenyl-4-yl-5-(2-fluorophenyl)-1H-pyrazol-4-ylmethyl]piperidin-4-yl}dimethyl-amine] here?
Answer: The IC50 was 0.2 µM.

Question: For `CN1CCN(Cc2cnn(-c3ccc(-c4ccc(F)cc4)cc3)c2-c2cnccn2)CC1` [Example 972, 2-[2-(4′-Fluorobiphenyl-4-yl)-4-(4-methyl-piperazin-1-ylmethyl)-2H-pyrazol-3-yl]-pyrazine], which IC50 is on record?
Answer: The IC50 was 0.085 µM.

Question: For `CCN(CC)CC1CCCCN1Cc1cnn(-c2ccc(-c3ccccc3)cc2)c1-c1ccccc1F` (centres unmarked) [Example 1028, {1-[1-Biphenyl-4-yl-5-(2-fluorophenyl)-1H-pyrazol-4-ylmethyl]piperidin-2-ylmethyl}-diethylamine], which IC50 is on record?
Answer: Its IC50 is 0.27 µM.

Question: For `Fc1ccc(-c2ccc(-n3ncc(CN(Cc4cnn(-c5ccc(-c6ccc(F)cc6)cc5)c4-c4ccco4)C4CC4)c3-c3ccco3)cc2)cc1` [Example 982, Cyclopropylbis-[1-(4′-fluorobiphenyl-4-yl)-5-furan-2-yl-1H-pyrazol-4-ylmethyl]amine], which IC50 is on record?
Answer: The IC50 was 0.11 µM.

Question: With `Cc1ccccc1-c1ccc(-n2ncc(CN3CCN(C)CC3)c2-c2ccccc2F)cc1` [Example 1020, 1-[5-(2-Fluorophenyl)-1-(2′-methyl-biphenyl-4-yl)-1H-pyrazol-4-ylmethyl]-4-methylpiperazine] as the compound, how does the IC50 read?
Answer: Its IC50 is 0.23 µM.

Question: `Cc1cnc(NCc2cnn(-c3ccc(-c4ccccc4)cc3)c2-c2ccccc2F)s1` [Example 1046, [1-Biphenyl-4-yl-5-(2-fluorophenyl)-1H-pyrazol-4-ylmethyl]-(5-methylthiazol-2-yl)amine] was tested. Which IC50 did it give?
Answer: The IC50 was 0.37 µM.

Question: Which IC50 does the source give for `CN1CCN(Cc2cnn(-c3ccc(-c4ccc(F)cc4)cc3)c2-c2ccc(Cl)c(Cl)c2)CC1` [Example 1007, 1-[5-(3,4-Dichlorophenyl)-1-(4′-fluoro-biphenyl-4-yl)-1H-pyrazol-4-ylmethyl]-4-methyl-piperazine] here?
Answer: Its IC50 is 0.19 µM.

Question: With `Cc1nn(-c2ccccc2)c(C)c1CN1CCN(C(=O)C(CCC(=O)O)N2C(=O)c3ccccc3C2=O)CC1` (centres unmarked) [Example 1015] as the compound, how does the IC50 read?
Answer: The IC50 was 0.22 µM.

Question: `CCc1ccc(-c2ccc(-n3ncc(CN4CCN(C)CC4)c3-c3ccccc3F)cc2)cc1` [Example 956, 1-[1-(4′-Ethylbiphenyl-4-yl)-5-(2-fluorophenyl)-1H-pyrazol-4-ylmethyl]-4-methylpiperazine] was tested. Which IC50 did it give?
Answer: The IC50 was 0.057 µM.

Same assay, conditions: target not given; description names affinity to 5-HT2A receptors; read-out: IC50

Question: Which IC50 does the source give for `Cn1cccc1CNCc1cnn(-c2ccc(-c3ccccc3)cc2)c1-c1ccccc1` [(171), (1-Biphenyl-4-yl-5-phenyl-1H-pyrazol-4-ylmethyl)-(1-methyl-1H-pyrrol-2-ylmethyl)amine] here?
Answer: Its IC50 is 0.026 µM.

Question: How did the IC50 turn out when `O=S1(=O)CCN(Cc2cnn(-c3ccc(-c4ccccc4)cc3)c2-c2ccccc2F)CC1` [(108), 4-[1-Biphenyl-4-yl-5-(2-fluorophenyl)-1H-pyrazol-4-ylmethyl]-thiomorpholine 1,1-dioxide] was run?
Answer: Its IC50 is 0.043 µM.

Question: How did the IC50 turn out when `Fc1ccccc1-c1cc(CN2CCCCC2)nn1-c1ccc(-c2ccccc2)cc1` [(43), 1-[1-Biphenyl-4-yl-5-(2-fluorophenyl)-1H-pyrazol-3-ylmethyl]-piperidine] was run?
Answer: Its IC50 is 0.12 µM.

Question: For `O=C(Nc1ccccc1)N1CCN(Cc2cnn(-c3ccc(-c4ccccc4)cc3)c2-c2ccccc2F)CC1` [(126), N-Phenyl-4-[1-biphenyl-4-yl-5-(2-fluorophenyl)-1H-pyrazol-4-ylmethyl]piperazine-1-carboxamide], which IC50 is on record?
Answer: Its IC50 is 0.79 µM.

Question: For `COCCCNCc1cnn(-c2ccc(-c3ccccc3)cc2)c1-c1ccccc1F` [(26), [1-Biphenyl-4-yl-5-(2-fluorophenyl)-1H-pyrazol-4-ylmethyl]-(3-methoxypropyl)amine], which IC50 is on record?
Answer: Its IC50 is 0.034 µM.

Question: How did the IC50 turn out when `CCN1CCCC1CNCc1cnn(-c2ccc(-c3ccccc3)cc2)c1-c1ccccc1F` (centres unmarked) [(88), [1-Biphenyl-4-yl-5-(2-fluorophenyl)-1H-pyrazol-4-ylmethyl]-(1-ethylpyrrolidin-2-ylmethyl)amine] was run?
Answer: Its IC50 is 0.02 µM.

Question: `CCN(CC)CC1CCCCN1Cc1cnn(-c2ccc(-c3ccccc3)cc2)c1-c1ccccc1F` (centres unmarked) [(51), {1-[1-Biphenyl-4-yl-5-(2-fluorophenyl)-1H-pyrazol-4-ylmethyl]-piperidin-2-ylmethyl}diethylamine] was tested. Which IC50 did it give?
Answer: Its IC50 is 0.27 µM.

Question: For `CCOC(=O)N1CCC(N(C)Cc2cnn(-c3ccc(-c4ccccc4)cc3)c2-c2ccccc2F)CC1` [(110), Ethyl 4-{[1-biphenyl-4-yl-5-(2-fluorophenyl)-1H-pyrazol-4-ylmethyl]methylamino}piperidine-1-carboxylate], which IC50 is on record?
Answer: The IC50 was 0.17 µM.

Question: `OCc1cnn(-c2ccc(-c3ccc(F)cc3)nc2)c1-c1ccccc1F` [(119), {5-(2-Fluorophenyl)-1-[6-(4-fluorophenyl)pyridin-3-yl]-1H-pyrazol-4-yl}methanol] was tested. Which IC50 did it give?
Answer: The IC50 was 0.3 µM.

Question: `CN1CCN(Cc2cnn(-c3ccc(-c4ccccc4)nc3)c2-c2ccccc2F)CC1` [(57), 1-[5-(2-Fluorophenyl)-1-(6-phenylpyridin-3-yl)-1H-pyrazol-4-ylmethyl]-4-methylpiperazine] was tested. Which IC50 did it give?
Answer: The IC50 was 0.22 µM.

Question: For `CN(C)CCN(C)Cc1cnn(-c2ccc(-c3ccccc3)nc2)c1-c1ccccc1F` [(127), N-[5-(2-Fluorophenyl)-1-(6-phenylpyridin-3-yl)-1H-pyrazol-4-ylmethyl]-N,N′,N′-trimethylethane-1,2-diamine], which IC50 is on record?
Answer: The IC50 was 0.44 µM.

Question: Which IC50 does the source give for `Cc1cnc(NCc2cnn(-c3ccc(-c4ccccc4)cc3)c2-c2ccccc2F)s1` [(178), [1-Biphenyl-4-yl-5-(2-fluorophenyl)-1H-pyrazol-4-ylmethyl]-(5-methylthiazol-2-yl)amine] here?
Answer: Its IC50 is 0.37 µM.

Question: For `OC1CCN(Cc2cnn(-c3ccc(-c4ccccc4)cc3)c2-c2ccccc2F)CC1` [(81), 1-[1-Biphenyl-4-yl-5-(2-fluorophenyl)-1H-pyrazol-4-ylmethyl]-piperidin-4-ol], which IC50 is on record?
Answer: Its IC50 is 0.43 µM.

Question: For `CC1CCN(Cc2cnn(-c3ccc(-c4ccccc4)cc3)c2-c2ccccc2F)CC1` [(49), 1-[1-Biphenyl-4-yl-5-(2-fluorophenyl)-1H-pyrazol-4-ylmethyl]-4-methylpiperidine], which IC50 is on record?
Answer: Its IC50 is 0.13 µM.

Question: Which IC50 does the source give for `Fc1ccc(-c2ccc(-n3ncc(CNc4cnccn4)c3-c3ccccc3F)cn2)cc1` [(196), {5-(2-Fluorophenyl)-1-[6-(4-fluorophenyl)pyridin-3-yl]-1H-pyrazol-4-ylmethyl}pyrazin-2-ylamine] here?
Answer: The IC50 was 1.2 µM.

Question: With `COCCN(C)Cc1cnn(-c2ccc(-c3ccccc3F)nc2)c1-c1ccccc1F` [(157), {5-(2-Fluorophenyl)-1-[6-(2-fluorophenyl)pyridin-3-yl]-1H-pyrazol-4-ylmethyl}-(2-methoxyethyl)methylamine] as the compound, how does the IC50 read?
Answer: Its IC50 is 2 µM.

Question: With `CCNC(=O)CN1CCN(Cc2cnn(-c3ccc(-c4ccccc4)cc3)c2-c2ccccc2F)CC1` [(139), 2-{4-[1-Biphenyl-4-yl-5-(2-fluorophenyl)-1H-pyrazol-4-ylmethyl]piperazin-1-yl}-N-ethylacetamide] as the compound, how does the IC50 read?
Answer: Its IC50 is 0.23 µM.

Question: With `Fc1ccccc1-c1c(CNCCc2c[nH]cn2)cnn1-c1ccc(-c2ccccc2)cc1` [(154), [1-Biphenyl-4-yl-5-(2-fluorophenyl)-1H-pyrazol-4-ylmethyl]-[2-(1H-imidazol-4-yl)ethyl]amine] as the compound, how does the IC50 read?
Answer: Its IC50 is 0.17 µM.

Question: For `Fc1ccccc1-c1c(CN2CC=CC2)cnn1-c1ccc(-c2ccccc2)cc1` [(30), 1-Biphenyl-4-yl-4-(2,5-dihydropyrrol-1-ylmethyl)-5-(2-fluorophenyl)-1H-pyrazole], which IC50 is on record?
Answer: The IC50 was 0.036 µM.

Question: With `CN(C)C1CCN(Cc2cnn(-c3ccc(-c4ccccc4)cc3)c2-c2ccccc2F)CC1` [(37), {1-[1-Biphenyl-4-yl-5-(2-fluorophenyl)-1H-pyrazol-4-ylmethyl]-piperidin-4-yl}dimethylamine] as the compound, how does the IC50 read?
Answer: The IC50 was 0.2 µM.
